Measurements as given in ChEMBL document CHEMBL5523725, “Fragment-Based Anti-inflammatory Agent Design and Target Identification: Discovery of AF-45 as an IRAK4 Inhibitor to Treat Ulcerative Colitis and Acute Lung Injury” (J Med Chem, 2024).
The source made the active and inactive calls.

How the values were obtained:
[1] = Half life in po dosed rat; type: ADME, organism-based; conditions: in vivo
RAW264.7 [2] = assay: Inhibition of NFkappaB/MAPK signaling pathway in mouse RAW264.7 cells assessed as reduction in LPS-induced p38 phosphorylation at 50 uM by Western blot analysis; type: cell-based
Mus musculus [3] = assay: Antiinflammatory activity in male C57BL/6 mouse model of DSS-induced ulcerative colitis assessed as reduction in TNF-alpha level in serum at 10 mg/kg, po administered for 11 days with subsequent administration of DSS for 8 days by ELISA; type: functional, organism-based; conditions: time 11.0 day
Mus musculus [4] = assay: Antiinflammatory activity in male C57BL/6 mouse model of DSS-induced ulcerative colitis assessed as reduction in colonic structure destruction at 10 mg/kg, po administered for 11 days with subsequent administration of DSS for 8 days by H and E staining based analysis; type: functional, organism-based; conditions: time 11.0 day
Mus musculus [5] = assay: Antiinflammatory activity in male C57BL/6 mouse model of DSS-induced ulcerative colitis assessed as reduction in macrophage infiltration in spleen at 10 mg/kg, po administered for 11 days with subsequent administration of DSS for 8 days by F4/80 labeling based immunohistochemistry analysis; type: functional, organism-based; conditions: time 11.0 day
Mus musculus [6] = assay: Antiinflammatory activity in male C57BL/6 mouse model of DSS-induced ulcerative colitis assessed as restoration of protein status at 10 mg/kg, po administered for 11 days with subsequent administration of DSS for 8 days by H and E staining based analysis; type: functional, organism-based; conditions: time 11.0 day
RAW264.7 [7] = assay: Inhibition of NFkappaB/MAPK signaling pathway in mouse RAW264.7 cells assessed as reduction in LPS-induced IkappaBalpha degradation at 50 uM by Western blot analysis; type: cell-based
RAW264.7 [8] = assay: Inhibition of NFkappaB/MAPK signaling pathway in mouse RAW264.7 cells assessed as reduction in LPS-induced p65 phosphorylation at 50 uM by Western blot analysis; type: cell-based
Mus musculus [9] = assay: Antiinflammatory activity in male C57BL/6 mouse model of DSS-induced ulcerative colitis assessed as reduction in IL-6 level in serum at 10 mg/kg, po administered for 11 days with subsequent administration of DSS for 8 days by ELISA; type: functional, organism-based; conditions: time 11.0 day
Mus musculus [10] = assay: Antiinflammatory activity in male C57BL/6 mouse model of DSS-induced ulcerative colitis assessed as reduction in macrophage infiltration in colon at 10 mg/kg, po administered for 11 days with subsequent administration of DSS for 8 days by F4/80 labeling based immunohistochemistry analysis; type: functional, organism-based; conditions: time 11.0 day
Mus musculus [11] = assay: In vivo binding affinity to IRAK4 in DSS-induced ulcerative colitis C57BL/6 mouse colon assessed as thermal stabilization at 10 mg/kg, po administered for 11 days with subsequent administration of DSS for 8 days by CETSA; type: functional, organism-based; conditions: time 11.0 day
Mus musculus [12] = assay: Anti-colitis activity in male C57BL/6 mouse model of DSS-induced ulcerative colitis assessed as colon length at 10 mg/kg, po administered for 11 days with subsequent administration of DSS for 8 days (reference value: 5.2 cm); type: functional; conditions: time 11 day
Mus musculus [13] = assay: Antiinflammatory activity in male C57BL/6 mouse model of DSS-induced ulcerative colitis assessed as reduction in spleen to body weight ratio at 10 mg/kg, po administered for 11 days with subsequent administration of DSS for 8 days; type: functional, organism-based; conditions: time 11.0 day
Mus musculus [14] = assay: Antiinflammatory activity in male C57BL/6 mouse model of DSS-induced ulcerative colitis assessed as preservation of goblet cells at 10 mg/kg, po administered for 11 days with subsequent administration of DSS for 8 days by H and E staining based analysis; type: functional, organism-based; conditions: time 11.0 day
[15] = molecular target: T1, Interleukin-1 receptor-associated kinase 4 (Mus musculus) (UniProt Q8R4K2); assay: Thermal stabilization of IRAK4 in mouse RAW264.7 cells at 10 uM measured after 4 hrs by CETSA; type: cell-based
T1 sequence (whole entry): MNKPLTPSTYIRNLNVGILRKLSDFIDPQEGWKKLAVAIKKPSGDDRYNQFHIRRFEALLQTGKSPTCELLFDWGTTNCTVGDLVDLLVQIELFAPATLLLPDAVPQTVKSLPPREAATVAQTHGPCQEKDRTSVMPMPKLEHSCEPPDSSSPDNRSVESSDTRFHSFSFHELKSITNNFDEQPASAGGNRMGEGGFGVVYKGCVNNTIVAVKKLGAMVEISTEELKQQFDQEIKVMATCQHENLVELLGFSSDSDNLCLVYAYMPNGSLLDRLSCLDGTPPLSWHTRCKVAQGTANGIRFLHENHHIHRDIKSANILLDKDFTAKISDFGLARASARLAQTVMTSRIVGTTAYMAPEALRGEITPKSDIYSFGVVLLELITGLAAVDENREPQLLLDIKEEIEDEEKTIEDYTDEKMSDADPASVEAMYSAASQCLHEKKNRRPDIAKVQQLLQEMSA

RAW264.7 [16] = assay: Inhibition of NFkappaB/MAPK signaling pathway in mouse RAW264.7 cells assessed as reduction in LPS-induced JNK phosphorylation at 50 uM by Western blot analysis; type: cell-based

CC[C@@H]1[C@H](F)C(=O)N[C@@H]1COc1nccc2cc(C(N)=O)c(OC)cc12 [ZIMLOVISERTIB]
2.8 h: half-life [1]
5.5 cm: Activity (Mus musculus [12])
active: inhibition (RAW264.7 [2]) | Activity (Mus musculus [3]) | Activity (Mus musculus [4]) | Activity (Mus musculus [5]) | Activity (Mus musculus [6]) | inhibition (RAW264.7 [7]) | inhibition (RAW264.7 [8]) | Activity (Mus musculus [9]) | Activity (Mus musculus [10]) | Activity (Mus musculus [13]) | Activity (Mus musculus [14]) | Activity [15] | inhibition (RAW264.7 [16])
inactive: Activity (Mus musculus [11])
